# According to patent publication US9932356B2, “Pyrazolopyrimidine macrocycles as inhibitors of human immunodeficiency virus replication” (priority 2014, dated 2018):
# Test system: NL-RLuc virus
# Test: Inhibition of HIV replication (NL-RLuc luciferase reporter virus in MT-2 cells)
# Assay type: cell-based
# Settings: Human immunodeficiency virus 1, MT2, 120 h
# Description: Inhibition of HIV replication: A recombinant NL-RLuc proviral clone was constructed in which a section of the nef gene from NL4-3 was replaced with the Renilla Luciferase gene. This virus is fully infectious and can undergo multiple cycles of replication in cell culture. In addition, the luciferous reporter provides a simple and easy method for quantitating the extent of virus growth and consequently, the antiviral activity of test compounds. The plasmid pNLRLuc contains the proviral NL-Rluc DNA cloned into pUC18 at the PvuII site. The NL-RLuc virus was prepared by transfection of 293T cells with the plasmid pNLRLuc. Transfections were performed using the LipofectAMINE PLUS kit from Invitrogen (Carlsbad, Calif.) according to the manufacturer and the virus generated was titered in MT-2 cells. For susceptibility analyses, the titrated virus was used to infect MT-2 cells in the presence of compound, and after 5 days of incubation, cells were processed and quantitated for virus growth by the amount of expressed luciferase. Assay media was RPMI 1640 supplemented with 10% heat inactivated fetal bovine serum (FBS), 100 units/ml penicillin G/100 units/ml streptomycin, 10 mM HEPES buffer pH 7.55 and 2 mM L-glutamine. The results from at least 2 experiments were used to calculate the EC50 values. Luciferase was quantitated using the Dual Luciferase kit from Promega (Madison, Wis.). Susceptibility of viruses to compounds was determined by incubation in the presence of serial dilutions of the compound. The 50% effective concentration (EC50) was calculated by using the exponential form of the median effect equation where (Fa)=1/[1+(ED50/drug conc.)^m] (Johnson V A, Byington R T. Infectivity Assay. In Techniques in HIV Research. ed. Aldovini A, Walker B D. 71-76. New York: Stockton Press. 1990).
row,SMILES,EC50
1,"Cc1nc2cc3nn2c(c1[C@H](OC(C)(C)C)C(=O)O)N1CCC(C)(CC1)OC/C=C/CCc1ccn(n1)-c1cccc-3c1 [Example 1, (2S)-tert-Butoxy[(21E)-4,25-dimethyl-24-oxa-1,5,7,8,15,30-hexaazahexacyclo[23.2.2.1^6,9.1^10,14.1^15,18.0^2,7]dotriaconta-2,4,6(32),8,10(31),11,13,16,18(30),21-decaen-3-yl]acetic acid]",87 nM
2,"Cc1nc2cc3nn2c(c1[C@H](OC(C)(C)C)C(=O)O)N1CCC(C)(CC1)OCCCCCc1ccn(n1)-c1cccc-3c1 [Example 2, (2S)-tert-Butoxy[4,25-dimethyl-24-oxa-1,5,7,8,15,30-hexaazahexacyclo[23.2.2.1^6,9.1^10,14.1^15,18.0^2,7]dotriaconta-2,4,6(32),8,10(31),11,13,16,18(30)-nonaen-3-yl]acetic acid]",49 nM
3,"Cc1nc2cc3nn2c(c1[C@H](OC(C)(C)C)C(=O)O)N1CCC(C)(CC1)OCCCCCn1ccc(n1)-c1cccc-3c1 [Example 3, (2S)-tert-Butoxy[4,25-dimethyl-24-oxa-1,5,7,8,18,30-hexaazahexacyclo[23.2.2.1^6,9.1^10,14.1^15,18.0^2,7]dotriaconta-2,4,6(32),8,10(31),11,13,15(30),16-nonaen-3-yl]acetic acid]",26 nM
4,"Cc1nc2cc3nn2c(c1[C@H](OC(C)(C)C)C(=O)O)N1CCC(C)(CC1)OCCCCn1ccc(n1)-c1cccc-3c1 [Example 4, (2S)-tert-butoxy[4,24-dimethyl-23-oxa-1,5,7,8,18,29-hexaazahexacyclo[22.2.2.1^6,9.1^10,14.1^15,18.0^2,7]hentriaconta-2,4,6(31),8,10(30),11,13,15(29),16-nonaen-3-yl]acetic acid]",14 nM
5,"Cc1cc2n(n1)-c1cccc(c1)-c1cc3nc(C)c([C@H](OC(C)(C)C)C(=O)O)c(n3n1)N1CCC(C)(CCCCCC2)CC1 [Example 5, (2S)-tert-Butoxy[4,17,26-trimethyl-1,5,7,8,15,16-hexaazahexacyclo[24.2.2.1^6,9.1^10,14.0^2,7.0^15,19]dotriaconta-2,4,6(32),8,10(31),11,13,16,18-nonaen-3-yl]acetic acid]",4 nM
6,"Cc1cc2n(n1)-c1cccc(c1)-c1cc3nc(C)c([C@H](OC(C)(C)C)C(=O)O)c(n3n1)N1CCC(C)(CCCCC2)CC1 [Example 6, (2S)-tert-butoxy[4,17,25-trimethyl-1,5,7,8,15,16-hexaazahexacyclo[23.2.2.1^6,9.1^10,14.0^2,7.0^15,19]hentriaconta-2,4,6(31),8,10(30),11,13,16,18-nonaen-3-yl]acetic acid]",7 nM
7,"Cc1nc2c(s1)CCCCCCC1(C)CCN(CC1)c1c([C@H](OC(C)(C)C)C(=O)O)c(C)nc3cc(nn13)-c1cccc-2c1 [Example 7, (2S)-tert-Butoxy[4,17,26-trimethyl-18-thia-1,5,7,8,16-pentaazahexacyclo[24.2.2.1^6,9.1^10,14.0^2,7.0^15,19]dotriaconta-2,4,6(32),8,10(31),11,13,15(19),16-nonaen-3-yl]acetic acid]",7 nM
8,"Cc1nc2c(s1)CCCCCC1(C)CCN(CC1)c1c([C@H](OC(C)(C)C)C(=O)O)c(C)nc3cc(nn13)-c1cccc-2c1 [Example 8, (2S)-tert-butoxy[4,17,25-trimethyl-18-thia-1,5,7,8,16-pentaazahexacyclo[23.2.2.1^6,9.1^10,14.0^2,7.0^15,19]hentriaconta-2,4,6(31),8,10(30),11,13,15(19),16-nonaen-3-yl]acetic acid]",7 nM
9,"Cc1nc2cc3nn2c(c1[C@H](OC(C)(C)C)C(=O)O)N1CCC(C)(CC/C=C/CCc2nc(C)c(C)n2-c2cccc-3c2)CC1 [Example 9, (2S)-tert-Butoxy[4,16,17,26-tetramethyl-1,5,7,8,15,18-hexaazahexacyclo[24.2.2.1^6,9.1^10,14.0^2,7.0^15,19]dotriaconta-2,4,6(32),8,10(31),11,13,16,18,22-decaen-3-yl]acetic acid]",9 nM
10,"Cc1nc2cc3nn2c(c1[C@H](OC(C)(C)C)C(=O)O)N1CCC(C)(CCCCCCc2nc(C)c(C)n2-c2cccc-3c2)CC1 [Example 10, (2S)-tert-Butoxy[4,16,17,26-tetramethyl-1,5,7,8,15,18-hexaazahexacyclo[24.2.2.1^6,9.1^10,14.0^2,7.0^15,19]dotriaconta-2,4,6(32),8,10(31),11,13,16,18-nonaen-3-yl]acetic acid]",7 nM
